Several values for one entry are separate records, joined by “and”; a condition that tells them apart may be missing. Equal values may be shown once.
How the values were obtained:
Swiss Albino Wistar rats = assay: Morris water maze test in young and old rats; assay type: in vivo; conditions: HED 100 mg 1-MX (+25 mg PX)
Protocol: (§1) Twenty-four young (6-8 Week) and twenty-four old (14-16 Months) Swiss Albino Wistar rats were housed in an animal room at a constant temperature (22±3° C.) and humidity (30%-70%) under a 12:12 h light-dark cycle with standard laboratory diet (Purina 5L79, Rat and Mouse 18% protein; PMI Nutrition International, Brentwood, MO, USA). Distilled water was provided ad libitum. All animal experiments were reviewed and approved by the Institutional Animal Ethical Committee (IAEC) of Radiant Research Services Pvt. Ltd (Bangalore, India). All research was conducted in accordance with the guidelines of the committee for the purpose of control and supervision of experiments on animals.
(§2) After one week of acclimation, the animals were randomly divided by body weight and age into six groups (n=8 per group in each test) for oral treatment once a day, at approximately same time each day (±1 hour), for 10 consecutive days: (1) vehicle control or (2) 1-methylxanthine or (3) 1-methylxanthine plus paraxanthine. The dose administered to the rat was calculated using US Food and Drug Administration for human equivalence doses (HED), assuming a human weight of 60 kg. […] Food intake was monitored daily while water intake was ad libitum. […] Body weight was recorded weekly. […]

acetylcholine = assay: Acetylcholine level in young and old rats; assay type: in vivo
Protocol: as §1, §2

dopamine = assay: Dopamine level in young and old rats; assay type: in vivo; conditions: old rats
Protocol: as §1, §2

catalase = assay: Catalase level in young and old rats; assay type: in vivo
Protocol: as §1, §2

participants [1] = assay: Respiratory quotient, placebo-controlled crossover; assay type: in vivo, human
Protocol: All supplements were orally ingested with 8 fluid ounces of cold tap water. The order of administration for all interventions was randomized using a random allocation software to ensure randomization and to avoid order effects. After ingestion, participants completed all assessments in an identical fashion 30, 60, 90, 120, and 180 minutes after ingestion of their assigned supplement. All study visits took place between 0600-1000 hours. At least 72 hours of rest will take place between each condition.
The lower the RQ, the more fat that is being oxidized for body energy needs. The closer to 1.0 the more carbohydrate is being burned for energy needs. If numbers are lower more fat is being oxidized.

participants [2] = assay: Diastolic blood pressure, crossover vs caffeine; assay type: in vivo, human
Protocol: All supplements were orally ingested with 8 fluid ounces of cold tap water. Resting Heart Rate, Systolic and Diastolic Blood Pressure was measured at baseline, 30, 60, 90, 120 and 180 minutes after ingestion.

[3] = Person one, time 0, 200 mg oral
[4] = Person two, time 0, 200 mg oral

Q: Which “Escape latency, Morris water maze” value (Swiss Albino Wistar rats; old rats) does the source give for `Cn1c(=O)[nH]c2nc[nH]c2c1=O` [1-methylxanthine, 1-Methyl-3H-purine-2,6-dione] here?
A: 41.71 ± 1.81 s

Q: And the “Escape latency, Morris water maze” value (Swiss Albino Wistar rats; young rats)?
A: 32.18 ± 1.10 s

Q: What about the acetylcholine level (acetylcholine; old rats, listed as 1-MX) of the same compound?
A: 56.33±3.42 U/ml and 56.33±3.58 U/ml

Q: And the acetylcholine level (acetylcholine; young rats)?
A: 63.35±4.12 U/ml

Q: What about the dopamine level (dopamine) of the same compound?
A: 474.42 ± 13.49 ng/L

Q: And the catalase levels (catalase; old rats)?
A: 32.78±1.26 U/mL

Q: And the catalase levels (catalase; young rats)?
A: 33.32±1.68 U/mL

Q: What about the “respiratory quotient reduced compared to placebo” value (participants [1]; 200 mg oral) of the same compound?
A: 15%

Q: And the “greater fat loss than CA” value (participants [1]; 200 mg oral, from respiratory quotient)?
A: 2.3%

Q: What about the “Respiratory Quotient MEAN (30-180)” value (participants [1]; Average) of the same compound?
A: 0.685

Q: What about the “Respiratory Quotient MEAN (30-180)” value (participants [1]; Person one) of the same compound?
A: 0.676

Q: What about the “Respiratory Quotient” value (participants [1]; Person one, 30 min after ingestion) of the same compound?
A: 0.69

Q: What about the “Respiratory Quotient” value (participants [1]; Person one, 60 min) of the same compound?
A: 0.66

Q: What about the “Respiratory Quotient” value (participants [1]; Person one, 90 min) of the same compound?
A: 0.67

Q: And the “Respiratory Quotient” value (participants [1]; Person one, 120 min)?
A: 0.69

Q: And the “Respiratory Quotient” value (participants [1]; Person one, 180 min)?
A: 0.67

Q: What about the “Respiratory Quotient” value (participants [1]; [3]) of the same compound?
A: 0.67

Q: And the “Respiratory Quotient MEAN (30-180)” value (participants [1]; Person two)?
A: 0.694

Q: And the “Respiratory Quotient” value (participants [1]; Person two, 30 min)?
A: 0.72

Q: What about the “Respiratory Quotient” value (participants [1]; Person two, 60 min) of the same compound?
A: 0.71

Q: What about the “Respiratory Quotient” value (participants [1]; Person two, 90 min) of the same compound?
A: 0.66

Q: What about the “Respiratory Quotient” value (participants [1]; Person two, 120 min) of the same compound?
A: 0.68

Q: What about the “Respiratory Quotient” value (participants [1]; Person two, 180 min) of the same compound?
A: 0.70

Q: And the “Respiratory Quotient” value (participants [1]; [4])?
A: 0.70

Q: What about the “diastolic blood pressure reduced in comparison to CA” value (participants [2]; 200 mg oral) of the same compound?
A: 12%

Q: What about the “Diastolic Blood Pressure MEAN (30-180)” value (participants [2]; Average) of the same compound?
A: 70.6 mm Hg

Q: And the “Diastolic Blood Pressure Mean Δ from 0” value (participants [2]; Average)?
A: −1.4 mm Hg

Q: What about the “Diastolic Blood Pressure MEAN (30-180)” value (participants [2]; Person one) of the same compound?
A: 71.6 mm Hg

Q: And the “Diastolic Blood Pressure Mean Δ from 0” value (participants [2]; Person one)?
A: −0.4 mm Hg

Q: What about the “Diastolic Blood Pressure Δ vs. CA” value (participants [2]; Person one) of the same compound?
A: −5.0 mm Hg

Q: And the “Diastolic Blood Pressure” value (participants [2]; Person one, 30 min)?
A: 71 mm Hg

Q: What about the “Diastolic Blood Pressure” value (participants [2]; Person one, 60 min) of the same compound?
A: 68 mm Hg

Q: And the “Diastolic Blood Pressure” value (participants [2]; Person one, 90 min)?
A: 69 mm Hg

Q: And the “Diastolic Blood Pressure” value (participants [2]; Person one, 120 min)?
A: 71 mm Hg

Q: And the “Diastolic Blood Pressure” value (participants [2]; Person one, 180 min)?
A: 79 mm Hg

Q: What about the “Diastolic Blood Pressure” value (participants [2]; [3]) of the same compound?
A: 72 mm Hg

Q: And the “Diastolic Blood Pressure MEAN (30-180)” value (participants [2]; Person two)?
A: 69.6 mm Hg

Q: And the “Diastolic Blood Pressure Mean Δ from 0” value (participants [2]; Person two)?
A: −2.4 mm Hg

Q: And the “Diastolic Blood Pressure Δ vs. CA” value (participants [2]; Person two)?
A: −12.2 mm Hg

Q: And the “Diastolic Blood Pressure” value (participants [2]; Person two, 30 min)?
A: 79 mm Hg

Q: What about the “Diastolic Blood Pressure” value (participants [2]; Person two, 60 min) of the same compound?
A: 62 mm Hg

Q: And the “Diastolic Blood Pressure” value (participants [2]; Person two, 90 min)?
A: 70 mm Hg

Q: And the “Diastolic Blood Pressure” value (participants [2]; Person two, 120 min)?
A: 72 mm Hg

Q: What about the “Diastolic Blood Pressure” value (participants [2]; Person two, 180 min) of the same compound?
A: 65 mm Hg

Q: What about the “Diastolic Blood Pressure” value (participants [2]; [4]) of the same compound?
A: 72 mm Hg

From patent US12390470B2, “1-methylxanthine-based bioactive composition and method of use thereof” (Ingenious Ingredients, LP, priority 2021, dated 2025)
